{
  "source": "patent US20260306641A1",
  "about": "“HELICASE DEGRADERS” (priority 2023, published 2026)",
  "key": {"[1]": {"test_system": "human Topoisomerase-II", "assay": "Topoisomerase II decatenation assay", "format": "biochemical", "experimental": "The Topoisomerase II drug screening kit (kDNA-based; TopoGEN, TG1009-1A) was used to assess in vitro Topo II enzyme activity according to the manufacture protocol. Assays were performed in […] reactions with 4 μL of 5× Assay Buffer (0.25 M Tris-HCl (pH 8), 10 mM ATP, 0.75 M NaCl, 50 mM MgCl2, 2.5 mM Dithiothreitol, 150 mg/ml BSA), 1 mL kDNA ([…]), 1 mL DMSO solvent or compounds at indicated concentrations, 1 mL Topoisomerase II (2 Units), 13 mL water. Assays were incubated at 37° C. for 30 min and stopped by addition of 2 mL 10% SDS and Proteinase K (50 mg/ml). After incubating at 37° C. for 15 min, samples were mixed with 1/10 volume of loading buffer and resolved on a 1% agarose gel."}, "[2]": {"test_system": "HaCaT cells", "assay": "CellTiter-Glo viability, HaCaT cells", "format": "cell-based, human", "conditions": "72 hr", "experimental": "Human keratinocytes (HaCaT; RRID:CVCL_0038), 143B cells (osteosarcoma; RRID:CVCL_2270), and HEK-293T (RRID:CVCL_0063) cells were maintained in Dulbecco's Modified Eagle's Medium (DMEM) supplemented with 10% fetal bovine serum (FBS; Peak Serum, PS-FB-2). Human Psn1 (pancreatic ductal adenocarcinoma; RRID:CVCL_1644) and H460 (non-small cell lung carcinoma; RRID:CVCL_0459) cells were cultured in RPMI-1640 medium supplemented with 10% FBS. HaCaT cells were synchronized in Go using serum starvation for 48 hr and released into the cell cycle by addition of DMEM with 10% FBS (51). Novobiocin (cat #46531) and Courmermycin-A1 (cat #C9270) were obtained from Sigma. Etoposide (cat #S1225) and AT7519 (cat #S1524) were obtained from SelleckChem. All stock solutions of inhibitors were stored at −20° C. as 10 mM suspensions in DMSO.\nCell viability determinations were performed using CellTiter-Glo Assays (Promega; cat #G7572). Cells were seeded in 96-well plates at a density of ~3×10^3 cells/well and treated with drugs for 72 hr, after which the cells were processed for viability using CellTiter-Glo reagent according to the instructions of the manufacturer. Each drug concentration test was performed using four replicates, and results averaged and plotted on graphs, +/−1 s.d."}, "[3]": {"test_system": "HaCaT cells", "assay": "BrdU labeling of DNA replication in synchronized HaCaT cells", "format": "cell-based, human", "conditions": "for DNA replication (BrdU), early G1 treatment: added at time 0, 15 μM; for DNA replication (BrdU), early S-phase treatment: treated at 18 hrs, analyzed 3 hrs later, CA1/novobiocin 15 μM, etoposide 5 μM", "experimental": "Verification of synchronization and determination of drug effects was performed by measuring the incorporation of bromo-deoxyuridine (BrdU) into replicating foci within nuclei. At times indicated, cells were pulse-labeled with 15 μM BrdU for 30 min, fixed with 4% paraformaldehyde, and analyzed by standard immunofluorescent techniques(40,51) with an anti-BrdU monoclonal antibody (Roche, clone no. BMC9318, RRID:AB_2313622). The average counts of three fields of 100 or more cells were used to determine the percentages of BrdU-labeled nuclei, +/−1 s.d."}, "[4]": {"test_system": "MCM/CMG and replisome proteins in HaCaT cells", "assay": "Immunoblots of chromatin-bound or total proteins, synchronized HaCaT cells", "format": "cell-based, human"}, "[5]": {"test_system": "solid tumor cell lines (NCI-60 set)", "conditions": "cited from earlier work"}, "[6]": {"test_system": "HSP90", "conditions": "cited from earlier work"}, "[7]": {"conditions": "treated at 18 hr (early S-phase)"}},
  "data": [
    {"smiles": "CO[C@@H]1[C@@H](OC(=O)c2ccc(C)[nH]2)[C@@H](O)[C@H](Oc2ccc3c(O)c(NC(=O)c4c[nH]c(C(=O)Nc5c(O)c6ccc(O[C@@H]7OC(C)(C)[C@H](OC)[C@@H](OC(=O)c8ccc(C)[nH]8)[C@H]7O)c(C)c6oc5=O)c4C)c(=O)oc3c2C)OC1(C)C", "note": "[CA1]", "values": [
      {"measurement": "CA1 concentration required for human Topo-II inhibition relative to that required to block CMG activity", "setting": "[1]; decatenation assay in vitro", "value": "~ 10 fold"},
      {"measurement": "human Topoisomerase-II inhibition", "setting": "[1]; low concentrations used in cell-based experiments", "value": "no inhibitory effect on human Topoisomerase-II at low concentrations"},
      {"measurement": "IC50", "setting": "[2]; Homo sapiens, HaCaT", "value": "~15", "unit": "µM"},
      {"measurement": "DNA replication (BrdU), early G1 treatment", "setting": "[3]", "value": "inhibits DNA replication"},
      {"measurement": "DNA replication (BrdU), late-G1 treatment", "setting": "[3]; treated at 12 hrs, assessed at 18 hrs", "value": "fail to undergo DNA replication"},
      {"measurement": "DNA replication (BrdU), early S-phase treatment", "setting": "[3]", "value": "effectively suppressed DNA replication"},
      {"measurement": "Ctf4 and Mcm10 on chromatin", "setting": "[4]; S-phase cells", "value": "reduced on chromatin"},
      {"measurement": "DNA polymerases-a, -d and -e on chromatin", "setting": "[4]; S-phase cells", "value": "caused a loss of DNA polymerases-a, -d, and -e from chromatin"},
      {"measurement": "RPA on chromatin", "setting": "[4]; S-phase cells", "value": "reduced on chromatin"},
      {"measurement": "GINS and Cdc45 loading onto chromatin", "setting": "[4]; early-G1 treatment", "value": "blocked"},
      {"measurement": "Orc2 chromatin binding", "setting": "[4]; early-G1 treatment", "value": "not affected"},
      {"measurement": "MCM loading onto chromatin", "setting": "[4]; early-G1 treatment, assessed 18 hrs", "value": "significantly inhibited"},
      {"measurement": "Cdc45 recruitment", "setting": "[4]; late-G1 treatment (12 hrs)", "value": "not appreciably affected"},
      {"measurement": "Cdt1 dynamics", "setting": "[4]; late-G1 treatment (12 hrs)", "value": "does not affect Cdt1 dynamics"},
      {"measurement": "GINS recruitment to DNA-loaded MCM hexamers", "setting": "[4]; late-G1 treatment (12 hrs)", "value": "inhibits GINS recruitment to DNA-loaded MCM hexamers"},
      {"measurement": "remainder of MCM loading", "setting": "[4]; late-G1 treatment (12 hrs)", "value": "only a small effect, if any"},
      {"measurement": "Cdc6 chromatin association, polyclonal antibody", "setting": "[4]; middle G1 exposure", "value": "not affected in chromatin association"},
      {"measurement": "Cdc6 form on chromatin, monoclonal antibody", "setting": "[4]; middle G1 exposure", "value": "sensitive to CA1"},
      {"measurement": "Orc2 and Orc4 affinity for chromatin", "setting": "[4]; middle G1 exposure", "value": "not affected"},
      {"measurement": "Cdt1 loading on chromatin", "setting": "[4]; treated at 6 hrs (middle G1)", "value": "blocks this Cdt1 loading"},
      {"measurement": "MCMs already loaded on chromatin", "setting": "[4]; treated at 6 hrs (middle G1)", "value": "does not affect MCMs already loaded"},
      {"measurement": "increase in MCM loading at 12 hrs", "setting": "[4]; treated at 6 hrs (middle G1)", "value": "inhibited by CA1"},
      {"measurement": "total Cdt1", "setting": "[4]; treated at 6 hrs (middle G1)", "value": "promotes loss of total Cdt1"},
      {"measurement": "GINS and Cdc45 chromatin association", "setting": "[4]; [7]", "value": "notably suppressed"},
      {"measurement": "total protein levels of Psf3 and Cdc45", "setting": "[4]; [7]", "value": "slightly affected"},
      {"measurement": "growth suppression of solid tumor cell lines", "setting": "[5]", "value": "sensitive to similar low micromolar concentrations"},
      {"measurement": "doses required to inhibit HSP90", "setting": "[6]", "value": "700 to 1000", "unit": "µM"}
    ]},
    {"smiles": "CO[C@@H]1[C@@H](OC(N)=O)[C@@H](O)[C@H](Oc2ccc3c(O)c(NC(=O)c4ccc(O)c(CC=C(C)C)c4)c(=O)oc3c2C)OC1(C)C", "note": "[novobiocin]", "values": [
      {"measurement": "human Topoisomerase-II inhibition", "setting": "[1]; 1 mM", "value": "no effect at 1 mM"},
      {"measurement": "effect on HaCaT viability", "setting": "[2]", "value": "little effect on viability"},
      {"measurement": "DNA replication (BrdU), early G1 treatment", "setting": "[3]", "value": "little effect"},
      {"measurement": "DNA replication (BrdU), early S-phase treatment", "setting": "[3]", "value": "did not"},
      {"measurement": "increase in MCM loading at 12 hrs", "setting": "[4]; treated at 6 hrs (middle G1)", "value": "not by novobiocin"},
      {"measurement": "growth suppression of solid tumor cell lines", "setting": "[5]", "value": "largely insensitive"},
      {"measurement": "doses required to inhibit HSP90", "setting": "[6]", "value": "700 to 1000", "unit": "µM"}
    ]}
  ]
}
